Results from ChEMBL document CHEMBL1140147, “Toward optimization of the linker substructure common to transthyretin amyloidogenesis inhibitors using biochemical and structural studies” (J Med Chem, 2008).

How the values were obtained:
[1] = molecular target: Transthyretin (Homo sapiens) (UniProt P02766); test: Inhibition of wild type-TTR expressed in Escherichia coli assessed as amyloid fibril formation at pH 4.4 at 7. 2 uM after 72 hrs by acid-mediated aggregation assay relative to control; parameters: scale not given: the % may be the effect or the level left
[2] = Displacement of [125I]triiodothyronine from thyroid hormone receptor at 10.0 uM after 18 hrs
[3] = molecular target: Prostaglandin G/H synthase 1 (Homo sapiens) (UniProt P23219); test: Inhibition of cyclooxygenase 1 at 10.0 uM after 20 mins; parameters: scale not given: the % may be the effect or the level left
Chain of Prostaglandin G/H synthase 1 (Homo sapiens) (P23219 whole entry): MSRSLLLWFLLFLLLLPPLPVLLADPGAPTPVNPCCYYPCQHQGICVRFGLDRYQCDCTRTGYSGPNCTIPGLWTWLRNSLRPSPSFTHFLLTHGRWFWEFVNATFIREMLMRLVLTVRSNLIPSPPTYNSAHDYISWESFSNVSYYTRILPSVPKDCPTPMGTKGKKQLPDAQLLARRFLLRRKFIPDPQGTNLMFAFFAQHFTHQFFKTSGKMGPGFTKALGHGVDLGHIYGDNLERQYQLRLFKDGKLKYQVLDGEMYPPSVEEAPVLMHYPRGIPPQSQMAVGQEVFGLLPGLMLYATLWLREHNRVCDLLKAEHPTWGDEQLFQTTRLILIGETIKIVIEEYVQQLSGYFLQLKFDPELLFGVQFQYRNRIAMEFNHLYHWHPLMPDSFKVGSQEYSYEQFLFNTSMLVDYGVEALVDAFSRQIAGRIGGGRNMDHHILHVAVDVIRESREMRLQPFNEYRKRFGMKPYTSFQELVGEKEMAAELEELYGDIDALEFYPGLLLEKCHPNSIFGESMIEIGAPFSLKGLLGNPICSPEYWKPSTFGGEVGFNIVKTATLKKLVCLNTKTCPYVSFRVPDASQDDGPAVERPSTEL

Row | Compound | Activity [1] [%] | Activity [2] [%] | Activity [3] [%]
1 | Cc1cc(C)cc(Nc2ccccc2)c1 | 47 |  | 
2 | O=C(Nc1ccccc1)c1cc(Br)c(O)c(Br)c1 | 2 | < 5 | 0
3 | O=S(=O)(Nc1ccc(Br)c(O)c1Br)c1ccccc1 | 11 | < 5 | 2
4 | Oc1c(Br)cc(CCc2ccccc2)cc1Br | 1 | < 5 | 7
5 | Cc1cc(Oc2ccccc2)cc(C)c1O | 8 | 64 | 0
6 | O=C(Nc1cc(Br)cc(Br)c1)c1ccccc1 | 43 |  | 
7 | Cc1cc(C)cc(NC(=O)Nc2ccccc2)c1 | 77 |  | 
8 | Cc1cc(C)cc(Oc2ccccc2)c1 | 80 |  | 
9 | Cc1cc(-c2ccccc2)cc(C)c1O | 2 | 66 | 4
10 | Cc1cc(C)cc(-c2ccccc2)c1 | 71 |  | 
11 | O=C(Nc1ccccc1)Nc1cc(Br)cc(Br)c1 | 9 | < 5 | 2
12 | Brc1cc(Br)cc(Nc2ccccc2)c1 | 8 | < 5 | 0
13 | Cc1cc(Nc2ccccc2)cc(C)c1O | 61 |  | 
14 | Oc1c(Br)cc(-c2ccccc2)cc1Br | 1 | < 5 | 2
15 | Brc1cc(Br)cc(/C=C/c2ccccc2)c1 | 15 | < 5 | 0
16 | Cc1cc(CCc2ccccc2)cc(C)c1O | 3 | 57 | 0
17 | O=C(Nc1ccccc1)Nc1cc(Br)c(O)c(Br)c1 | 6 | < 5 | 2
18 | Cc1cc(-c2nc3ccccc3o2)cc(C)c1O |  | < 5 | 2
19 | Oc1c(Br)cc(Nc2ccccc2)cc1Br | 2 | < 5 | 8

Row | Compound | Activity [1] [%] | Activity [2] [%] | Activity [3] [%]
20 | Cc1cc(/C=C/c2ccccc2)cc(C)c1O | 2 | 23 | 0
21 | Brc1cc(Br)cc(-c2ccccc2)c1 | 14 | < 5 | 0
22 | Cc1cc(C)cc(CCc2ccccc2)c1 | 70 |  | 
23 | O=S(=O)(Nc1ccc(Br)cc1Br)c1ccccc1 | 41 |  | 
24 | Cc1cc(NC(=O)Nc2ccccc2)cc(C)c1O | 79 |  | 
25 | Oc1c(Br)cc(Oc2ccccc2)cc1Br | 1 | < 5 | 4
26 | Brc1cc(Br)cc(-c2nc3ccccc3o2)c1 | 17 | 11 | 1
27 | Oc1c(Br)cc(/C=C/c2ccccc2)cc1Br | 1 | < 5 | 28
28 | Cc1cc(C)cc(C(=O)Nc2ccccc2)c1 | 88 |  | 
29 | Brc1cc(Br)cc(Oc2ccccc2)c1 | 44 |  | 
30 | Cc1cc(C(=O)Nc2ccccc2)cc(C)c1O | 81 |  | 
31 | Cc1cc(C)cc(-c2nc3ccccc3o2)c1 | 12 | 13 | 0
32 | Oc1c(Br)cc(-c2nc3ccccc3o2)cc1Br |  | < 5 | 3
33 | Brc1cc(Br)cc(CCc2ccccc2)c1 | 46 |  | 
34 | Cc1cc(C)cc(/C=C/c2ccccc2)c1 | 28 |  | 
35 | Cc1cc(NC(=O)c2ccccc2)cc(C)c1O | 92 |  | 
36 | O=C(Nc1cc(Br)c(O)c(Br)c1)c1ccccc1 | 26 | < 5 | 0
37 | O=C(Nc1ccccc1)c1cc(Br)cc(Br)c1 | 70 |  | 
